This experiment concerns the target Delta-type opioid receptor (Cavia porcellus). Description: Tested for inhibitory effect on binding of [3H]DPDPE to opioid receptor delta in guinea pig cerebellum membranes.

For the compound `C=CCN(CC=C)[C@@H](Cc1ccc(O)cc1)C(=O)NCC(=O)NCC(=O)N[C@@H](Cc1ccccc1)C(=O)N[C@@H](CC(C)C)C(=O)N[C@@H](CCCNC(=N)N)C(=O)N[C@@H](CCCNC(=N)N)C(=O)N[C@H](C(=O)N[C@@H](CCCNC(=N)N)C(=O)N1CCC[C@@H]1C(=O)N[C@@H](CCCCN)C(=O)O)[C@@H](C)CC`, the affinity corresponds to a Ki of 149 nM.

`CC[C@H](C)[C@H](NC(=O)[C@H](CCCNC(=N)N)NC(=O)[C@H](CCCNC(=N)N)NC(=O)[C@H](CC(C)C)NC(=O)[C@H](Cc1ccccc1)NC(=O)CNC(=O)CNC(=O)[C@H](Cc1ccc(O)cc1)NCC1CC1)C(=O)N[C@@H](CCCNC(=N)N)C(=O)N1CCC[C@@H]1C(=O)N[C@@H](CCCCN)C(=O)O` yielded a Ki of 558 nM.

The term Ki denotes a measure of affinity in units of concentration, obtained from inhibition or displacement.

These data come from BindingDB's records for doi:10.1021/jm00102a019 (Oregon State University, 1993).
